Assay results: ChEMBL document CHEMBL1132729
The source made the active and inactive calls. The calls are words filed in the database; no cut-off is given here.

Experiments:
[1] = molecular target: T1, Lipoprotein lipase (Bos taurus) (UniProt P11151); experiment: Percent inhibition of compound against Lipoprotein lipase(LPL) was evaluated; No significant inhibition
T1 sequence (whole entry): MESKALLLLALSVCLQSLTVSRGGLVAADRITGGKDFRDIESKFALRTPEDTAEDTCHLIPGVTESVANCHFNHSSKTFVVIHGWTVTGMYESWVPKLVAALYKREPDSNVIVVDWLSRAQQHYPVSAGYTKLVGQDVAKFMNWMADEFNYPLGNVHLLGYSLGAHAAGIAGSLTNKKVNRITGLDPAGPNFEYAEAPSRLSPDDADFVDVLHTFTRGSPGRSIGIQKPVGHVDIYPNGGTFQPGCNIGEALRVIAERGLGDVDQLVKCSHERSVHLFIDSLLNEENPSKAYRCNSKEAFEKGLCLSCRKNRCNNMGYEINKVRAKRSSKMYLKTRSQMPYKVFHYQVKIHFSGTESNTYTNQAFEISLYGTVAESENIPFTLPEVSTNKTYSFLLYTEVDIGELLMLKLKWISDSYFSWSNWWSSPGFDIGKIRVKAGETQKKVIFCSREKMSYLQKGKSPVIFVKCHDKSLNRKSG

[2] = molecular target: T1, Lipoprotein lipase (Bos taurus); experiment: Percent inhibition of compound against Lipoprotein lipase(LPL) at 3h was evaluated; details: concentration not given here
[3] = molecular target: T1, Lipoprotein lipase (Bos taurus); experiment: Percent inhibition of compound against Lipoprotein lipase(LPL) at 10 uM was evaluated

CCCCCCCCCCCCS(=O)(=O)F
inhibition [1]: inactive

CCCCCCS(=O)(=O)ON1C(=O)CCC1=O
inhibition [1]: No inhibition

CCCCCCCCCCCCCCCCS(=O)(=O)F
inhibition [2]: 90%
inhibition [3]: 50%

CCCCCCS(=O)(=O)Oc1ccc([N+](=O)[O-])cc1
inhibition [1]: No inhibition
